Values belong to the compound of their own block, whether it stands above or below them.
Tests used:
AHR2 = molecular target: T1, AHR2 (Danio rerio, UniProt Q9YGV3); experiment: Antisense morpholino knockdown of AHR2 in Tg; format: in vivo, zebrafish; conditions: for expression in the skin and vasculature in AHR2 morphants: not shown
T1 sequence (Q9YGV3 1-1027): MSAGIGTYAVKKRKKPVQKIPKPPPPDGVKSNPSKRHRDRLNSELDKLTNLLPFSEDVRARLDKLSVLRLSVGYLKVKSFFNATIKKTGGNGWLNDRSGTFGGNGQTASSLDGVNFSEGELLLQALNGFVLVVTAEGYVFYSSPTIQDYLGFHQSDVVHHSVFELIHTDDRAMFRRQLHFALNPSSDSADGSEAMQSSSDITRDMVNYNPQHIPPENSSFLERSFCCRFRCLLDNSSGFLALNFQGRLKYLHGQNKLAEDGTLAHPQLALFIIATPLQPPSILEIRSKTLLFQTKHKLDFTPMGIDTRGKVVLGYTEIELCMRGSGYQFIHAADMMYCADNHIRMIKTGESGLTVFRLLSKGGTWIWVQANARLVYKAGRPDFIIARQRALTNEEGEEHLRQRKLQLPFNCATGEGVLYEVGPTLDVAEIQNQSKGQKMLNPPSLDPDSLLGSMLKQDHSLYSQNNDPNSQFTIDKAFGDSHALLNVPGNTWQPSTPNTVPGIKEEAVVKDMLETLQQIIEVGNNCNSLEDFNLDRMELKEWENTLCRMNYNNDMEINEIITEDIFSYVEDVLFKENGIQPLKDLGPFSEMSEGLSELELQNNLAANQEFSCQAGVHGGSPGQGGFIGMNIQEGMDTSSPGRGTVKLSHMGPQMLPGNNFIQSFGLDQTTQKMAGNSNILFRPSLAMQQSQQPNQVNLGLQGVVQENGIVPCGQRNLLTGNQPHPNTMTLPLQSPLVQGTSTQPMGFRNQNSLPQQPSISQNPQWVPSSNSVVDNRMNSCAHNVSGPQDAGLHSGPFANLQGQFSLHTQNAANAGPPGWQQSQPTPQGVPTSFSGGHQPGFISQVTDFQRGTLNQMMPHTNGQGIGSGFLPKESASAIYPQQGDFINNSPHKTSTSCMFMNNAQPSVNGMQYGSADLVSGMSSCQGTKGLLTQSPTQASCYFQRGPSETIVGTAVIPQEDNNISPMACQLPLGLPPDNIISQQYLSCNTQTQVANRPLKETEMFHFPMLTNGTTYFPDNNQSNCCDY

[1] = tested on: 21 AHR-related, cardiac stress-related and oxidative stress gene transcripts
AHR1A = experiment: Antisense morpholino knockdown of AHR1A in Tg; format: in vivo, zebrafish; conditions: for cyp1a/GFP expression in the livers in AHR1A morphants: single concentration
cyp1a = conditions: transgenic Japanese Medaka; ref Ng and Gong, 2013; cited from earlier work
zebrafish embryos [2] = conditions: zebrafish embryos exposed 6 to 120 hpf; beyond the range of concentrations tested and beyond the range of accuracy of the EC50 model
arg2 = conditions: 48 hpf embryos; dependent on AHR2; ref Goodale et al., 2015; cited from earlier work
cyp1a/GFP = conditions: ref Goodale et al., 2015; cited from earlier work
zebrafish embryos [3] = experiment: animal or person; conditions: Danio rerio, read-out: EC50, calculated value beyond the range of concentrations tested, zebrafish embryos exposed 6 to 120 hpf; beyond the range of concentrations tested and beyond the range of accuracy of the EC50 model
[4] = tested on: zebrafish AHR1A, AHR1B, and AHR2; experiment: Antisense morpholino knockdown, any of the morpholinos; format: in vivo

Compound: O=[N+]([O-])c1c2c(cc3ccccc13)-c1cccc3cccc-2c13 [7-nitrobenzo[k]fluoranthene]
cyp1a/GFP expression in the vasculature and/or skin (and neuromasts, for 7-nitrobenzo[k]fluoranthene) following knockdown of AHR2 (AHR2): near-complete inhibition
GFP expression in AHR2 morphants, skin and neuromasts (AHR2; at both 48 and 120 hpf): Decreased GFP expression
expression of cyp1a, cyp1b1, and cyp1c1 ([1]; 50 µM, at 120 hpf, vs DMSO control): Significantly increased expression
expression of arg2 ([1]; 120 hpf): significantly increased expression
cyp1a/GFP expression in the livers in AHR1A morphants (AHR1A): eliminated

Compound: Clc1cc2c(cc1Cl)Oc1cc(Cl)c(Cl)cc1O2 [TCDD]
expression of cyp1a in the neuromasts (cyp1a): observed previously

Compound: O=[N+]([O-])c1ccc2cc3ccccc3cc2c1 [2-nitroanthracene]
EC50, calculated value beyond the range of concentrations tested (zebrafish embryos [2]): beyond the tested range of concentrations

Compound: O=C1c2ccccc2-c2cccc3cccc1c23 [1,9-benz-10-anthrone]
arg2 expression (arg2): significantly elevated
cyp1a/GFP expression in the syncytial layer of the yolk (cyp1a/GFP): previously observed

cyp1a/GFP expression in the vasculature and/or skin (and neuromasts, for 7-nitrobenzo[k]fluoranthene) following knockdown of AHR2 (AHR2): near-complete inhibition
GFP expression in AHR2 morphants, vasculature (AHR2; at both 48 and 120 hpf): Decreased GFP expression
Compound: O=[N+]([O-])c1c2ccccc2cc2c1ccc1ccccc12 [7-nitrobenz[a]anthracene]
EC50, calculated value beyond the range of concentrations tested (zebrafish embryos [2]): beyond the tested range of concentrations
EC50 (zebrafish embryos [3]): 238 µM

Compound: O=[N+]([O-])c1ccc2c3c(cccc13)CC2 [5-nitroacenaphthalene]
expression of arg2 ([1]; 120 hpf): significantly increased expression
observed developmental toxicity in AHR1A morphants (AHR1A): did not result in a substantial decrease
cyp1a/GFP expression in the livers in AHR1A morphants (AHR1A): eliminated

Compound: O=[N+]([O-])c1ccc2c3c(cccc13)-c1ccccc1-2 [3-nitrofluoranthene]
cyp1a/GFP expression in the yolk after injection with any of the morpholinos [4]: did not appear to decrease

cyp1a/GFP expression in the livers in AHR1A morphants (AHR1A): eliminated
Compound: O=[N+]([O-])c1cc2ccccc2c2ccccc12 [9-nitrophenanthrene]

cyp1a/GFP expression in the yolk after injection with any of the morpholinos [4]: did not appear to decrease
Compound: O=[N+]([O-])c1cc([N+](=O)[O-])c2ccc3cccc4ccc1c2c43 [1,3-dinitropyrene]
expression of nppb, increase ([1]; 3.56 µM, 120 hpf): 23 fold
expression of myl7, significant increase ([1]; 48 hpf): 2 fold
number of differentially expressed genes ([1]; 48 hpf, suite of 21 genes): 4

Compound: O=[N+]([O-])c1ccc2ccc3c([N+](=O)[O-])ccc4ccc1c2c43 [1,6-dinitropyrene]
cyp1a/GFP expression in the vasculature and/or skin (and neuromasts, for 7-nitrobenzo[k]fluoranthene) following knockdown of AHR2 (AHR2): near-complete inhibition
toxicity in AHR2 morphants (AHR2): Decreased toxicity
expression in the skin and vasculature in AHR2 morphants (AHR2): reduced
expression of cyp1a, cyp1b1, cyp1c1, and cyp1c2 ([1]; 5 µM, at 48 and 120 hpf, vs DMSO control): Significantly increased expression
expression of cyp1a1, increase ([1]; 48 hpf, compared to the DMSO exposed controls): 1,963 fold
expression of arg2 ([1]; 120 hpf): significantly increased expression

cyp1a/GFP expression in the vasculature and/or skin (and neuromasts, for 7-nitrobenzo[k]fluoranthene) following knockdown of AHR2 (AHR2): near-complete inhibition
expression in the skin and vasculature in AHR2 morphants (AHR2): reduced
Compound: O=[N+]([O-])c1c2c(cc3ccccc13)-c1ccc([N+](=O)[O-])c3cccc-2c13 [3,7-dinitrobenzo[k]fluoranthene]

Compound: c1ccc2c(c1)oc1ccccc12 [Dibenzofuran]
EC50, calculated value beyond the range of concentrations tested (zebrafish embryos [2]): beyond the tested range of concentrations
EC50 (zebrafish embryos [3]): 228 µM

Reference: publication PMC5414855 (Toxicological Sciences, 2017)
